US8282688B2, “Laccase mediators and methods of use” (Danisco US Inc., priority 2006, dated 2012)
Where “and” joins values, the source holds several entries; their conditions need not be identical. Equal values may be shown once.

Columns and labels:
Assay type in all cases: biochemical
[1] = tested on: Cerrena sp. laccase; test: Soluble indigo bleaching at two pH values, Cerrena sp. laccase (Example 3)
Procedure: (§1) A saturated solution of indigo in N-methylpyrrolidone (NMP) was prepared by stirring indigo (30 mg) in NMP (10 ml) at room temperature for 5 hours. The NMP solution was diluted 10-fold into an aqueous buffer solution resulting in a blue solution. For example, dilution into 50 mM sodium acetate buffer at pH 5, or 50 mM sodium phosphate buffer at pH 7. Solutions were shaken well immediately before use.
(§2) The assay for the bleaching of the solubilized indigo substrate was performed in a 96-well microtitre plate whereby each well received the soluble indigo solution in 50 mM sodium acetate buffer at pH 5 (180 uL), laccase (10 ppm enzyme) and mediator solution (from a 20 mM stock solution in methanol). The total volume of each well was adjusted to 200 uL with deionzed water. A control containing laccase only was run in duplicate. The plate was sealed and incubated at 50° C. for 2 hours at 800 rpm on a heated agitator (Thermomixer, Eppendorf). Following this period, the plates were unsealed and a solution of ascorbic acid (20 uL of a 10% aqueous solution) added to each well in order to reduce the oxidized forms of the mediators. The extent of indigo bleaching was then assessed by determining the absorbance for each well at 600 nm using a microtitre plate reader. The lower the absorbance reading, the greater the extent of indigo bleaching.
(§3) Laccases derived from Myceliophtora (Denilite® II, Novozymes, Bagsvaerd, Denmark), Thielavia (Ecostone LCC10, AB enzymes, Darmstadt, Germany) and Cerrena sp. were assessed for their ability to bleach solubilized indigo in conjunction with low molecular weight mediators at two pH values.
(§4) Bleaching of solubilized indigo in 96-well microtitre plates was performed as described in Example 1, using 3 different laccases at pH values of 5 and 7.

[2] = tested on: Thielavia laccase (Ecostone LCC10); test: Soluble indigo bleaching at two pH values, Thielavia laccase (Example 3)
Procedure: as §1, §2, §3, §4

[3] = tested on: Myceliophtora laccase (Denilite II); test: Soluble indigo bleaching at two pH values, Myceliophtora laccase (Example 3)
Procedure: as §1, §2, §3, §4

[4] = tested on: Thielavia sp. laccase (Ecostone LCC10); test: Bleaching of solubilized indigo, Thielavia sp. laccase with mediators (Example 2); settings: for ΔA600 (change in absorbance at 600 nm relative to control): laccase 10 ppm, pH 5, 50° C., 2 hours, n = 2
Procedure: An assay for the bleaching of the solubilized indigo substrate by laccase/mediator combinations was performed in a 96-well microtitre plate as follows
as §1, §2

[5] = tested on: C. unicolor laccase; test: Bleaching of denim swatches with C. unicolor laccase (Example 4); set-up: key to ΔL Denim swatch Frontside / Δb Denim swatch Frontside / ΔL Denim swatch Backside / Δb Denim swatch Backside / Δa Denim swatch Backside / Δa Denim swatch Frontside: difference between initial and final CIE L*a*b* values; key to ΔE (total color difference) Denim swatch Backside / ΔE (total color difference) Denim swatch Frontside: ΔE = (ΔL²+Δa²+Δb²)^1/2 from CIE L*a*b* before/after bleaching
Procedure: Denim legs (made out of sulfur bottom/indigo dyed denim fabric from Cone Mill, style number 1662P) were pretreated with IndiAge® 2XL at a dose of 1 gram per liter in a 50 lb lab scale tumbling washer. The liquor ratio was 6 to 1 (5 kg substrate in 30 liters of water) and the treatment was performed at 55° C. at pH 4.5 for 1 hour. A warm rinse followed the cellulase treatment, after which the fabric was dried in a tumble dryer. A punch press was used to cut ⅝ inch denim disks from IndiAge® 2XL pretreated denim legs. Each denim disk is pre read with a Chroma Meter CR-200 by Minolta in order to determine the CIE L*a*b* values of both the front and backside of the fabric disk.
One denim disk is placed in each well of two duplicate 12 well micro-titer plates. Each well received C. unicolor laccase (20 uL of 1/20 dilution, approx. 20 ppm), mediator (200, 100, 50 or 20 uL of a 20 mM stock solution in methanol) and 50 mM potassium phosphate buffer, pH 6 for a total volume of 2 mL/well. The mediators were methyl syringate (MS), 4-cyano-2,6-dimethoxyphenol (SN) and 3,4,5-trimethoxyphenol (TMP). The plates were sealed and incubated at 50° C. for 2 hours at 150 rpm in a standard incubator. Following this period, the swatches were removed from the plates and carefully placed on a filter paper in a Buchner funnel and washed with copious amounts of water, followed by drying of the residual water under high vacuum overnight. The swatches were then re-read with the chromometer in order to determine the CIE L*a*b* values of both the front and backside of the disk following bleaching. The total color difference (ΔE) is calculated from the difference between the initial and final CIE L*a*b* values according to the formula ΔE=(ΔL^2+Δa^2+Δb^2)^1/2 The total color differences (ΔE) as a function of mediator concentration are plotted in FIGS. 5 and 6.

[6] = lower mediator concentration of 50 uM
[7] = mediator 50 mM Concentration (head)
[8] = mediator 500 mM Concentration (head)
[9] = mediator 200 uM, laccase 20 ppm, pH 6, 50° C., 2 hours
[10] = mediator 500 uM, laccase 20 ppm, pH 6, 50° C., 2 hours
[11] = mediator 1000 uM, laccase 20 ppm, pH 6, 50° C., 2 hours

| SMILES | ΔA600 Cerrena ([1]; pH 5, mediator 250 uM) | ΔA600 Cerrena ([1]; pH 7, mediator 250 uM) | ΔA600 Thielavia ([2]; pH 5, mediator 250 uM) | ΔA600 Thielavia ([2]; pH 7, mediator 250 uM) | ΔA600 Myceliophtora ([3]; pH 5, mediator 250 uM) | ΔA600 Myceliophtora ([3]; pH 7, mediator 250 uM) | ΔA600 (change in absorbance at 600 nm relative to control) [4, 7] | ΔA600 (change in absorbance at 600 nm relative to control) [4, 8] | further results |
| --- | --- | --- | --- | --- | --- | --- | --- | --- | --- |
| COc1cc(C=CC(=O)O)cc(OC)c1O (stereo in doubt) [Sinapinic acid, sinapinic acid] | 0.240 | 0.257 | 0.068 | 0.112 | 0.157 | 0.204 |  |  |  |
| CCn1c(=NN=c2sc3cc(S(=O)(=O)O)ccc3n2CC)sc2cc(S(=O)(=O)O)ccc21 [ABTS] | 0.329 | 0.215 | 0.234 | 0.145 | 0.267 | 0.155 | 0.174 | 0.235 | effectiveness as mediator for indigo bleaching [4, 6]: most effective mediator; effectiveness as mediator for indigo bleaching ([4]; mediator concentration of 500 uM): most effective mediator |
| COC(=O)c1cc(OC)c(OC(C)=O)c(OC)c1 [AMS, methyl 4-acetyl syringate] | 0.028 | 0.077 | 0.100 | 0.087 | 0.117 | 0.078 |  |  |  |
| CNC(=O)c1cc(OC)c(O)c(OC)c1 [MSA, 4-(N-methylcarboxamido)-2,6-dimethoxyphenol] |  |  |  |  |  |  | 0.103 | 0.181 |  |
| O=C(O)CCCN1c2ccccc2Sc2ccccc21 [PTP, 10-(carboxypropyl)-phenothiazine] |  |  |  |  |  |  | 0.132 | 0.044 |  |
| COc1cc(C=O)cc(OC)c1O [Syringaldehyde, syringaldehyde] |  |  |  |  |  |  | 0.092 | 0.132 |  |
| COc1cc(C(=O)O)cc(OC)c1O [Syringic acid, syringic acid] |  |  |  |  |  |  | 0.005 | 0.024 | effectiveness as mediator for indigo bleaching [4, 6]: no more effectively than the control condition |
| COc1cc(O)cc(OC)c1OC [TMP, 3,4,5-trimethoxyphenol, reference compound] |  |  |  |  |  |  |  |  | effectiveness as mediator for denim swatch bleaching ([5]; C. unicolor laccase 20 ppm, 200-2000 uM mediator): not an effective mediator; ΔE (total color difference) Denim swatch Backside [5, 9]: 0.35 and 0.57; ΔE (total color difference) Denim swatch Frontside [5, 9]: 0.96 and 0.77; Δa Denim swatch Frontside [5, 9]: 0.29 and 0.33; ΔE (total color difference) Denim swatch Backside [5, 10]: 0.51 and 0.30; ΔE (total color difference) Denim swatch Frontside [5, 10]: 0.64 and 0.63; ΔL Denim swatch Frontside [5, 10]: −0.61; ΔE (total color difference) Denim swatch Backside [5, 11]: 0.45 and 0.51; ΔE (total color difference) Denim swatch Frontside [5, 11]: 0.51 and 0.46; Δa Denim swatch Backside [5, 11]: 0.22 and 0.12; ΔE (total color difference) Denim swatch Backside ([5]; mediator 2000 uM, laccase 20 ppm, pH 6, 50° C., 2 hours): 0.34 |
